Assay results taken from patent publication US20230203043A1, “NOVEL IMIDAZOPYRAZINE DERIVATIVES” (Hoffmann-La Roche Inc., priority 2020, published 2023).
Structures can show the parent of a compound that is named as a salt.

system: Acinetobacter baumannii ATCC17961; assay: Antimicrobial susceptibility testing: 90% growth inhibitory concentration (IC90) determination in Iso-Sensitest broth, OD600 growth; assay type: cell-based; settings: Acinetobacter baumannii, ATCC17961, 16 h, read-out: A. baumannii ATCC 17961 IC90 (uM), strain ATCC 17961, OD600 growth over 16 h
Outline: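 Growth inhibition is calculated during the logarithmic phase from OD600 readings taken every 20 minutes across 16 h at 35±2° C. Bacteria at ~5×10^(5) CFU/ml face twofold dilution series (e.g. 50 to 0.097 μM final).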

SMILES	IC90 [µM]
N[C@@H]1CCN(C(=O)N2CCN(C(=O)c3ccc(Nc4nccn5c(-c6c[nH]nc6C(F)(F)F)cnc45)cc3Cl)CC2)C1 [Example 326, [4-[(3R)-3-aminopyrrolidine-1-carbonyl]piperazin-1-yl]-[2-chloro-4-[[3-[3-(trifluoromethyl)-1H-pyrazol-4-yl]imidazo[1,2-a]pyrazin-8-yl]amino]phenyl]methanone formate]	0.135
NC1CC(C(=O)N2CCN(C(=O)c3ccc(Nc4nccn5c(-c6c[nH]nc6C(F)(F)F)cnc45)cc3Cl)CC2)C1 (stereo not drawn) [Example 327, [4-(3-aminocyclobutanecarbonyl)piperazin-1-yl]-[2-chloro-4-[[3-[3-(trifluoromethyl)-1H-pyrazol-4-yl]imidazo[1,2-a]pyrazin-8-yl]amino]phenyl]methanone formate]	0.146
N[C@H]1CCN(C(=O)N2CCN(C(=O)c3ccc(Nc4nccn5c(-c6c[nH]nc6C(F)(F)F)cnc45)cc3Cl)CC2)C1 [Example 328, [4-[(3S)-3-aminopyrrolidine-1-carbonyl]piperazin-1-yl]-[2-chloro-4-[[3-[3-(trifluoromethyl)-1H-pyrazol-4-yl]imidazo[1,2-a]pyrazin-8-yl]amino]phenyl]methanone formate]	0.157
N[C@H]1CC[C@@H](C(=O)N2CCN(C(=O)c3ccc(Nc4nccn5c(-c6c[nH]nc6C(F)(F)F)cnc45)cc3Cl)CC2)C1 [Example 340, [4-[(1R,3S)-3-aminocyclopentanecarbonyl]piperazin-1-yl]-[2-chloro-4-[[3-[3-(trifluoromethyl)-1H-pyrazol-4-yl]imidazo[1,2-a]pyrazin-8-yl]amino]phenyl]methanone formate]	0.194
N[C@@H]1CC[C@H](C(=O)N2CCN(C(=O)c3ccc(Nc4nccn5c(-c6c[nH]nc6C(F)(F)F)cnc45)cc3Cl)CC2)C1 [Example 342, [4-[(1S,3R)-3-aminocyclopentanecarbonyl]piperazin-1-yl]-[2-chloro-4-[[3-[3-(trifluoromethyl)-1H-pyrazol-4-yl]imidazo[1,2-a]pyrazin-8-yl]amino]phenyl]methanone formate]	0.228
CCc1cc(Nc2nccn3c(-c4c[nH]nc4C(F)(F)F)cnc23)ccc1C(=O)N[C@@H](C)CN [Example 349, N-[(2S)-1-aminopropan-2-yl]-2-ethyl-4-[[3-[3-(trifluoromethyl)-1H-pyrazol-4-yl]imidazo[1,2-a]pyrazin-8-yl]amino]benzamide formate]	1.63

same assay, conditions: Acinetobacter baumannii, ATCC17961, 16 h, strain ATCC 17961, OD600 growth over 16 h, read-out: A. baumannii ATCC 17961 IC90

SMILES	IC90 [µM]
Cc1cc(Nc2nccn3c(-c4c[nH]nc4C(F)(F)F)cnc23)ccc1C(=O)N1CCN(C(=O)[C@H](C)N)CC1 [Example 331, (2S)-2-amino-1-[4-[2-methyl-4-[[3-[3-(trifluoromethyl)-1H-pyrazol-4-yl]imidazo[1,2-a]pyrazin-8-yl]amino]benzoyl]piperazin-1-yl]propan-1-one]	0.401
Cc1cc(Nc2nccn3c(-c4c[nH]nc4C(F)(F)F)cnc23)ccc1C(=O)N1CCN(C(=O)[C@@H]2CCNC2)CC1 [Example 332, [2-methyl-4-[[3-[3-(trifluoromethyl)-1H-pyrazol-4-yl]imidazo[1,2-a]pyrazin-8-yl]amino]phenyl]-[4-[(3R)-pyrrolidine-3-carbonyl]piperazin-1-yl]methanone]	0.509
Cc1cc(Nc2nccn3c(-c4c[nH]nc4C(F)(F)F)cnc23)ccc1C(=O)N1CCN(C(=O)[C@H]2CCNC2)CC1 [Example 333, [2-methyl-4-[[3-[3-(trifluoromethyl)-1H-pyrazol-4-yl]imidazo[1,2-a]pyrazin-8-yl]amino]phenyl]-[4-[(3S)-pyrrolidine-3-carbonyl]piperazin-1-yl]methanone]	0.695
Cc1cc(Nc2nccn3c(-c4c[nH]nc4C(F)(F)F)cnc23)ccc1C(=O)N1CCN(C(=O)[C@@H](C)N)CC1 [Example 334, (2R)-2-amino-1-[4-[2-methyl-4-[[3-[3-(trifluoromethyl)-1H-pyrazol-4-yl]imidazo[1,2-a]pyrazin-8-yl]amino]benzoyl]piperazin-1-yl]propan-1-one]	0.782
NCCC(=O)NCCCNC(=O)c1ccc(Nc2nccn3c(-c4c[nH]nc4C(F)(F)F)cnc23)cc1Cl [Example 338, N-[3-(3-aminopropanoylamino)propyl]-2-chloro-4-[[3-[3-(trifluoromethyl)-1H-pyrazol-4-yl]imidazo[1,2-a]pyrazin-8-yl]amino]benzamide hydrochloride]	0.691
NCCCC(=O)NCCCNC(=O)c1ccc(Nc2nccn3c(-c4c[nH]nc4C(F)(F)F)cnc23)cc1Cl [Example 344, N-[3-(4-aminobutanoylamino)propyl]-2-chloro-4-[[3-[3-(trifluoromethyl)-1H-pyrazol-4-yl]imidazo[1,2-a]pyrazin-8-yl]amino]benzamide formate]	0.572
CCCn1cc(-c2cnc3c(Nc4ccc(C(=O)NCCOCCN)c(CC)c4)nccn23)c(C(F)F)n1 [Example 346, N-[2-(2-aminoethoxy)ethyl]-4-[[3-[3-(difluoromethyl)-1-propylpyrazol-4-yl]imidazo[1,2-a]pyrazin-8-yl]amino]-2-ethylbenzamide]	0.164
CCc1cc(Nc2nccn3c(-c4cn(C)nc4C(F)F)cnc23)ccc1C(=O)NCCOCCN [Example 347, N-[2-(2-aminoethoxy)ethyl]-4-[[3-[3-(difluoromethyl)-1-methylpyrazol-4-yl]imidazo[1,2-a]pyrazin-8-yl]amino]-2-ethylbenzamide]	1.67
O=C(c1ccc(Nc2nccn3c(-c4c[nH]nc4C(F)(F)F)cnc23)cc1Cl)N1CCN(C(=O)C2(O)CCCNC2)CC1 (stereo not drawn) [Example 352, [2-chloro-4-[[3-[3-(trifluoromethyl)-1H-pyrazol-4-yl]imidazo[1,2-a]pyrazin-8-yl]amino]phenyl]-[4-(3-hydroxypiperidine-3-carbonyl)piperazin-1-yl]methanone]	0.229
CCc1cc(Nc2nccn3c(-c4c[nH]nc4C(F)(F)F)cnc23)ccc1C(=O)N1CCN(C(=O)C2CCNCC2)CC1 [Example 354, [2-ethyl-4-[[3-[3-(trifluoromethyl)-1H-pyrazol-4-yl]imidazo[1,2-a]pyrazin-8-yl]amino]phenyl]-[4-(piperidine-4-carbonyl)piperazin-1-yl]methanone hydrochloride]	0.918

Continued, values first:

IC90 [µM]	SMILES
0.211	CCc1cc(Nc2nccn3c(-c4cn(CC#N)nc4C(F)(F)F)cnc23)ccc1C(=O)NCCCCCN [Example 329, N-(5-aminopentyl)-4-[[3-[1-(cyanomethyl)-3-(trifluoromethyl)pyrazol-4-yl]imidazo[1,2-a]pyrazin-8-yl]amino]-2-ethylbenzamide]
0.148	C#CCn1cc(-c2cnc3c(Nc4ccc(C(=O)NC)c(CC)c4)nccn23)c(C(F)(F)F)n1 [Example 335, 2-ethyl-N-methyl-4-[[3-[1-prop-2-ynyl-3-(trifluoromethyl)pyrazol-4-yl]imidazo[1,2-a]pyrazin-8-yl]amino]benzamide]
0.152	CCc1cc(Nc2nccn3c(-c4c[nH]nc4C(F)(F)F)cnc23)ccc1C(=O)NCCCCCCN [Example 336, N-(6-aminohexyl)-2-ethyl-4-[[3-[3-(trifluoromethyl)-1H-pyrazol-4-yl]imidazo[1,2-a]pyrazin-8-yl]amino]benzamide hydrochloride]
2.49	CCc1cc(Nc2nccn3c(-c4cn(CC(N)=O)nc4C(F)(F)F)cnc23)ccc1C(=O)NC [Example 339, 4-[[3-[1-(2-amino-2-oxoethyl)-3-(trifluoromethyl)pyrazol-4-yl]imidazo[1,2-a]pyrazin-8-yl]amino]-2-ethyl-N-methylbenzamide]
0.223	CCc1cc(Nc2nccn3c(-c4cn(CC#N)nc4C(F)(F)F)cnc23)ccc1C(=O)NC [Example 341, 4-[[3-[1-(cyanomethyl)-3-(trifluoromethyl)pyrazol-4-yl]imidazo[1,2-a]pyrazin-8-yl]amino]-2-ethyl-N-methylbenzamide]
0.546	CCc1cc(Nc2nccn3c(-c4cn(CCCC#N)nc4C(F)(F)F)cnc23)ccc1C(=O)NC [Example 343, 4-[[3-[1-(3-cyanopropyl)-3-(trifluoromethyl)pyrazol-4-yl]imidazo[1,2-a]pyrazin-8-yl]amino]-2-ethyl-N-methylbenzamide]
1.55	CNC(=O)c1ccc(Nc2nccn3c(-c4cn(C5CNC5)nc4C(F)(F)F)cnc23)cc1Cl [Example 348, 4-[[3-[1-(azetidin-3-yl)-3-(trifluoromethyl)pyrazol-4-yl]imidazo[1,2-a]pyrazin-8-yl]amino]-2-chloro-N-methylbenzamide hydrochloride]
0.371	CCc1cc(Nc2nccn3c(-c4c[nH]nc4C(F)(F)F)cnc23)ccc1C(=O)NC [Example 350, 2-ethyl-N-methyl-4-[[3-[3-(trifluoromethyl)-1H-pyrazol-4-yl]imidazo[1,2-a]pyrazin-8-yl]amino]benzamide]
0.099	C#CCn1cc(-c2cnc3c(Nc4ccc(C(=O)NC)c(Cl)c4)nccn23)c(C(F)(F)F)n1 [Example 351, 2-chloro-N-methyl-4-[[3-[1-prop-2-ynyl-3-(trifluoromethyl)pyrazol-4-yl]imidazo[1,2-a]pyrazin-8-yl]amino]benzamide]

same assay, conditions: read-out: A. baumannii ATCC 17961 IC90, strain ATCC 17961, OD600 growth over 16 h, formate

SMILES	IC90 [µM]
NC1CC(C(=O)N2CCN(C(=O)c3ccc(Nc4nccn5c(-c6c[nH]nc6C(F)(F)F)cnc45)cc3Cl)CC2)C1 (stereo not drawn) [Example 330, [4-(3-aminocyclobutanecarbonyl)piperazin-1-yl]-[2-chloro-4-[[3-[3-(trifluoromethyl)-1H-pyrazol-4-yl]imidazo[1,2-a]pyrazin-8-yl]amino]phenyl]methanone formate]	0.275

same assay, conditions: strain ATCC 17961, OD600 growth over 16 h, read-out: A. baumannii ATCC 17961 IC90

SMILES	IC90 [µM]
NCCCC[C@H](N)C(=O)NCCCNC(=O)c1ccc(Nc2nccn3c(-c4c[nH]nc4C(F)(F)F)cnc23)cc1Cl [Example 345, 2-chloro-N-[3-[[(2S)-2,6-diaminohexanoyl]amino]propyl]-4-[[3-[3-(trifluoromethyl)-1H-pyrazol-4-yl]imidazo[1,2-a]pyrazin-8-yl]amino]benzamide foramate]	1.22
